Patent publication US20080038333A1, “Formulations For Poorly Soluble Drugs” (Bio-Dar Ltd., priority 2004, published 2008)

Assay: Solvent evaporation of nanoemulsion, crystal formation (electron microscopy)
Format: physicochemical
Conditions: evaporation performed after the beads formation, FIG. 4
Description: The organic solvent (toluene) was evaporated with Rotavapor (R-114 BUCHI) from the emulsion to form a dispersion of lipophilic drug in water. The organic solvent evaporation was performed in four steps, water was added up to the initial weight after each step.

drug particle state after solvent evaporation: remain as nanoparticles
SMILES: CCC(C)(C)C(=O)O[C@H]1C[C@@H](C)C=C2C=C[C@H](C)[C@H](CC[C@@H]3C[C@@H](O)CC(=O)O3)[C@H]21 [simvastatine]
